Source: PubChem BioAssay (NCI)
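Following 48 hours of exposure in 96-well plates, responses at five concentrations were used to interpolate endpoints linearly. Definition used: TGI = concentration required for complete inhibition of growth.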

Columns and labels:
Experiment in all cases: NCI-60 cell line screen, 48 h
RPMI-8226 leukemia = test system: RPMI-8226 leukemia
BT-549 breast = test system: BT-549 breast
EKVX NSCLC = test system: EKVX NSCLC
NCI/ADR-RES ovarian = test system: NCI/ADR-RES ovarian
U251 CNS = test system: U251 CNS
PC-3 prostate = test system: PC-3 prostate
NCI-H522 lung = test system: NCI-H522 lung
RXF 393 renal = test system: RXF 393 renal
786-0 renal = test system: 786-0 renal
HCC-2998 colon = test system: HCC-2998 colon
SK-MEL-5 melanoma = test system: SK-MEL-5 melanoma
COLO 205 colon = test system: COLO 205 colon
HOP-92 NSCLC = test system: HOP-92 NSCLC
A549 NSCLC = test system: A549 NSCLC
HL-60(TB) leukemia = test system: HL-60(TB) leukemia
SK-OV-3 ovarian = test system: SK-OV-3 ovarian
MDA-MB-231 breast = test system: MDA-MB-231 breast
IGROV1 ovarian = test system: IGROV1 ovarian
CAKI-1 renal = test system: CAKI-1 renal
NCI-H23 lung = test system: NCI-H23 lung
UACC-257 melanoma = test system: UACC-257 melanoma
HS 578T breast = test system: HS 578T breast
MCF7 breast = test system: MCF7 breast
SF-539 CNS = test system: SF-539 CNS
HOP-62 NSCLC = test system: HOP-62 NSCLC
NCI-H226 lung = test system: NCI-H226 lung
SF-295 CNS = test system: SF-295 CNS
OVCAR-4 ovarian = test system: OVCAR-4 ovarian
SW-620 colon = test system: SW-620 colon
K-562 leukemia = test system: K-562 leukemia
OVCAR-8 ovarian = test system: OVCAR-8 ovarian
M14 melanoma = test system: M14 melanoma
OVCAR-3 ovarian = test system: OVCAR-3 ovarian
MDA-N = test system: MDA-N
SN12C renal = test system: SN12C renal
SNB-19 CNS = test system: SNB-19 CNS
A498 renal = test system: A498 renal
CCRF-CEM leukemia = test system: CCRF-CEM leukemia
SR leukemia = test system: SR leukemia
HCT-15 colon = test system: HCT-15 colon
UO-31 renal = test system: UO-31 renal
MOLT-4 leukemia = test system: MOLT-4 leukemia
KM12 colon = test system: KM12 colon
HT29 colon = test system: HT29 colon
NCI-H460 lung = test system: NCI-H460 lung
SNB-75 CNS = test system: SNB-75 CNS
DU-145 prostate = test system: DU-145 prostate
HCT-116 colon = test system: HCT-116 colon
SK-MEL-28 melanoma = test system: SK-MEL-28 melanoma
OVCAR-5 ovarian = test system: OVCAR-5 ovarian
MDA-MB-435 = test system: MDA-MB-435
ACHN renal = test system: ACHN renal
UACC-62 melanoma = test system: UACC-62 melanoma
LOX IMVI melanoma = test system: LOX IMVI melanoma
SF-268 CNS = test system: SF-268 CNS
TK-10 renal = test system: TK-10 renal
MALME-3M melanoma = test system: MALME-3M melanoma
T-47D breast = test system: T-47D breast
SK-MEL-2 melanoma = test system: SK-MEL-2 melanoma

CC(C)NC(=O)OCc1c(COC(=O)NC(C)C)c(-c2cc[n+](COC(=O)CC(C)(C)C)cc2)n2c1CCC2
TGI (RPMI-8226 leukemia): > 100 µM | TGI (BT-549 breast): > 100 µM | TGI (EKVX NSCLC): > 100 µM | TGI (NCI/ADR-RES ovarian): > 100 µM | TGI (U251 CNS): > 100 µM | TGI (PC-3 prostate): > 100 µM | TGI (NCI-H522 lung): > 100 µM | TGI (RXF 393 renal): > 100 µM | TGI (786-0 renal): > 100 µM | TGI (HCC-2998 colon): > 100 µM | TGI (SK-MEL-5 melanoma): > 100 µM | TGI (COLO 205 colon): > 100 µM | TGI (HOP-92 NSCLC): > 100 µM | TGI (A549 NSCLC): > 100 µM | TGI (HL-60(TB) leukemia): > 100 µM | TGI (SK-OV-3 ovarian): > 100 µM | TGI (MDA-MB-231 breast): > 100 µM | TGI (IGROV1 ovarian): > 100 µM | TGI (CAKI-1 renal): > 100 µM | TGI (NCI-H23 lung): > 100 µM | TGI (UACC-257 melanoma): > 100 µM | TGI (HS 578T breast): > 100 µM | TGI (MCF7 breast): > 100 µM | TGI (SF-539 CNS): > 100 µM | TGI (HOP-62 NSCLC): > 100 µM | TGI (NCI-H226 lung): > 100 µM | TGI (SF-295 CNS): > 100 µM | TGI (OVCAR-4 ovarian): > 100 µM | TGI (SW-620 colon): > 100 µM | TGI (K-562 leukemia): > 100 µM | TGI (OVCAR-8 ovarian): > 100 µM | TGI (M14 melanoma): > 100 µM | TGI (OVCAR-3 ovarian): > 100 µM | TGI (MDA-N): > 100 µM | TGI (SN12C renal): > 100 µM | TGI (SNB-19 CNS): > 100 µM | TGI (A498 renal): > 100 µM | TGI (CCRF-CEM leukemia): > 100 µM | TGI (SR leukemia): > 100 µM | TGI (HCT-15 colon): > 100 µM | TGI (UO-31 renal): > 100 µM | TGI (MOLT-4 leukemia): > 100 µM

O=C(C(=O)c1cc(-c2ccccc2)nc2ccc3ccccc3c12)c1ccccc1
TGI (KM12 colon): > 100 µM | TGI (HT29 colon): > 100 µM | TGI (RPMI-8226 leukemia): > 100 µM | TGI (BT-549 breast): > 100 µM | TGI (EKVX NSCLC): > 100 µM | TGI (NCI/ADR-RES ovarian): > 100 µM | TGI (U251 CNS): > 100 µM | TGI (PC-3 prostate): > 100 µM | TGI (NCI-H460 lung): > 100 µM | TGI (SNB-75 CNS): 40.7 µM | TGI (RXF 393 renal): > 100 µM | TGI (786-0 renal): > 100 µM | TGI (HCC-2998 colon): > 100 µM | TGI (SK-MEL-5 melanoma): > 100 µM | TGI (DU-145 prostate): > 100 µM | TGI (COLO 205 colon): > 100 µM | TGI (A549 NSCLC): > 100 µM | TGI (HL-60(TB) leukemia): 78.7 µM | TGI (SK-OV-3 ovarian): > 100 µM | TGI (MDA-MB-231 breast): > 100 µM | TGI (IGROV1 ovarian): > 100 µM | TGI (CAKI-1 renal): > 100 µM | TGI (NCI-H23 lung): > 100 µM | TGI (UACC-257 melanoma): > 100 µM | TGI (HS 578T breast): 81.4 µM | TGI (HCT-116 colon): 39 µM | TGI (MCF7 breast): > 100 µM | TGI (SK-MEL-28 melanoma): > 100 µM | TGI (SF-539 CNS): > 100 µM | TGI (HOP-62 NSCLC): > 100 µM | TGI (OVCAR-5 ovarian): > 100 µM | TGI (NCI-H226 lung): > 100 µM | TGI (SF-295 CNS): > 100 µM | TGI (OVCAR-4 ovarian): 49.8 µM | TGI (MDA-MB-435): > 100 µM | TGI (SW-620 colon): > 100 µM | TGI (ACHN renal): > 100 µM | TGI (K-562 leukemia): > 100 µM | TGI (OVCAR-8 ovarian): > 100 µM | TGI (M14 melanoma): > 100 µM | TGI (OVCAR-3 ovarian): > 100 µM | TGI (MDA-N): > 100 µM | TGI (UACC-62 melanoma): > 100 µM | TGI (SN12C renal): > 100 µM | TGI (SNB-19 CNS): > 100 µM | TGI (A498 renal): > 100 µM | TGI (LOX IMVI melanoma): > 100 µM | TGI (CCRF-CEM leukemia): > 100 µM | TGI (SF-268 CNS): > 100 µM | TGI (SR leukemia): > 100 µM | TGI (HCT-15 colon): > 100 µM | TGI (UO-31 renal): > 100 µM | TGI (TK-10 renal): > 100 µM | TGI (MOLT-4 leukemia): > 100 µM | TGI (MALME-3M melanoma): > 100 µM

CCOC(=O)NC(NCC(O)c1ccccc1)(C(F)(F)F)C(F)(F)F (centres undefined)
TGI (KM12 colon): > 100 µM | TGI (HT29 colon): > 100 µM | TGI (RPMI-8226 leukemia): > 100 µM | TGI (BT-549 breast): > 100 µM | TGI (EKVX NSCLC): > 100 µM | TGI (U251 CNS): > 100 µM | TGI (NCI-H522 lung): > 100 µM | TGI (NCI-H460 lung): > 100 µM | TGI (SNB-75 CNS): > 100 µM | TGI (RXF 393 renal): > 100 µM | TGI (HCC-2998 colon): > 100 µM | TGI (SK-MEL-5 melanoma): > 100 µM | TGI (DU-145 prostate): > 100 µM | TGI (HOP-92 NSCLC): > 100 µM | TGI (A549 NSCLC): > 100 µM | TGI (HL-60(TB) leukemia): > 100 µM | TGI (SK-OV-3 ovarian): > 100 µM | TGI (MDA-MB-231 breast): > 100 µM | TGI (IGROV1 ovarian): > 100 µM | TGI (CAKI-1 renal): > 100 µM | TGI (NCI-H23 lung): > 100 µM | TGI (UACC-257 melanoma): > 100 µM | TGI (HS 578T breast): > 100 µM | TGI (HCT-116 colon): > 100 µM | TGI (MCF7 breast): > 100 µM | TGI (SK-MEL-28 melanoma): > 100 µM | TGI (SF-539 CNS): > 100 µM | TGI (HOP-62 NSCLC): > 100 µM | TGI (OVCAR-5 ovarian): > 100 µM | TGI (NCI-H226 lung): > 100 µM | TGI (MDA-MB-435): > 100 µM | TGI (SW-620 colon): > 100 µM | TGI (ACHN renal): > 100 µM | TGI (K-562 leukemia): > 100 µM | TGI (M14 melanoma): > 100 µM | TGI (OVCAR-3 ovarian): > 100 µM | TGI (MDA-N): > 100 µM | TGI (UACC-62 melanoma): > 100 µM | TGI (SN12C renal): > 100 µM | TGI (SNB-19 CNS): > 100 µM | TGI (A498 renal): > 100 µM | TGI (LOX IMVI melanoma): > 100 µM | TGI (CCRF-CEM leukemia): > 100 µM | TGI (SF-268 CNS): > 100 µM | TGI (SR leukemia): > 100 µM | TGI (HCT-15 colon): > 100 µM | TGI (UO-31 renal): > 100 µM | TGI (TK-10 renal): > 100 µM | TGI (MOLT-4 leukemia): > 100 µM | TGI (T-47D breast): > 100 µM | TGI (SK-MEL-2 melanoma): > 100 µM | TGI (MALME-3M melanoma): > 100 µM
